Results published in patent US20240376148A1, “MEDICAMENT FOR INHIBITING DIETARY OBESITY AND POLYPEPTIDE USED THEREFOR” (INSTITUTE OF ZOOLOGY, CHINESE ACADEMY OF SCIENCES, priority 2022, published 2024).

What was measured:
[1] = tested on: A. muciniphila; assay: qPCR of relative abundance of A. muciniphila in intestinal flora of SPF mice; type: in vivo; details: p<0.05
Experimental: In order to verify the changes in the relative abundance of A.muciniphila in the intestinal flora of mice fed with other HD, qPCR experiments were performed on the changes of intestinal flora in mice. Faecal bacterial DNA was extracted from the faeces of mice in the NC, HFD, D1, D2, D3, D5, D7, D8, D9 and D10 groups collected in the pre-SPF mice experiments and then the relative abundance of A. muciniphila was determined using qPCR.

[2] = tested on: A. muciniphila; assay: qPCR of abundance of A. muciniphila in intestine of rats; type: in vivo, Sprague Dawley (SD) rats; details: figure d of FIG. 7 (rats), p<0.05
Source text: FIGS. 7A-7H are a graph showing the effect of using D3 on rats and rhesus monkeys in Example 2 of the present invention. FIG. 7A is the schematic diagram of sampling time point in rats; FIG. 7B is the graph showing the results of the growth rate of body weight with different feeding treatments of the rat; FIG. 7C is the graph showing the results of the short-term feed intake measurement of the rat; FIG. 7D is the graph showing the results of the qPCR detection of the abundance of A. muciniphila in intestine of rats with different feeding treatment; FIG. 7E is a schematic diagram of the sampling time point in rhesus monkeys; FIG. 7F is the graph showing the results of the growth rate of body weight with different feeding treatments of rhesus monkeys; FIG. 7G is the feed intake monitoring graphs of rhesus monkeys with different feeding treatments; FIG. 7H is the graph showing the results of the qPCR detection of the abundance of A. muciniphila in intestine of rhesus monkeys with different feeding treatment. The data shown in the figure are mean±standard deviation, the number of repetitions is 5-10, and the significant difference of each group is analyzed by Wilcoxon test. * representing a significance analysis result of P<0.05, ** representing a significance analysis result of P<0.01.
Body weights were monitored weekly. […]

[3] = tested on: Guca2b; assay: Ileum transcriptome sequencing and qPCR gene expression in mice; type: in vivo; details: P<0.01
Experimental: In order to find the target genes that D3 may act on, the inventors performed ileal transcriptome analysis. Three samples from each group of mice were selected as targets for transcriptome sequencing. Ileal RNA was extracted using the Trizol method and an Agilent 2100 analyser was required to detect the RNA quality above 7 for RNA library construction. After passing the sample test, 2 μg of total RNA was taken from each sample to construct a transcriptome sequencing library. After data acquisition, the RNA-seq data was first de-redundantly removed using Trim galore v0.4.4 to remove junctions and low quality sequences. Using GRCm38 as the mice reference genome, HISAT2 v2.0.5 and StringTie v1.3.4 were used to quantify the abundance of each gene. Differential expression analysis was performed using DESeq2 v1.24.0.
(§1) qPCR gene expression was carried out using the StepOnePlus real-time fluorescent quantitative PCR system. Three technical replicates were performed for each sample, and the identity and purity of the amplified product were checked by analyzing the melting curve at the end of the amplification. Gene expression results were referenced to the percent expression of each gene normalized to glyceraldehyde-3-phosphate dehydrogenase (GAPDH).

[4] = tested on: UGN; assay: ELISA detection of serum UGN in rats; type: in vivo; details: P<0.05
Experimental: Serum preparation: mice were placed at room temperature for 2 hours or 4° C. overnight after eye vein blood collection, and centrifuged at 1000× g for 15 minutes at 2-8° C.; the supernatant can be taken for immediate detection; or subpackaged, and the specimens were stored at −20° C. or −80° C., but repeated freezing and thawing should be avoided. Thawed samples should be centrifuged again prior to detecting.
The serum sample diluent was diluted 1:200 times and then tested. The specific operation was as follows: 5 μl of the sample was added to 45 μl of the sample diluent (1:10 dilution) and mixed. Then 15 μl of the above diluent was added to the 285 μl sample diluent (1:20 dilution) and mixed. The sample obtained after the completion of the second step was 1:200 times dilution. The sample incubation, primary antibody, horseradish peroxidase labeled avidin working solution, color development, termination and enzyme labeling detection were carried out in turn.

[5] = tested on: Guca2b; assay: qPCR of Guca2b mRNA in the ileum of rats; type: in vivo
Experimental: as §1

## RTRYCRTGR [D3]
[1]
  relative abundance of A. muciniphila in the intestinal flora by qPCR: significantly increased
[2]
  relative abundance of A. muciniphila in the intestine by qPCR: significantly increased
[3]; GF mice
  expression of UGN (Guca2b) in the ileum: significantly up-regulated
[3]; SPF mice
  expression of UGN (Guca2b) in the ileum: significantly up-regulated
[4]
  level of Guca2b in rat serum: significantly increased
[5]
  mRNA level of UGN in the ileum: increased significantly
